Assay results reported in US6727264B1 (Synaptic Pharmaceutical Corporation, priority 2001, dated 2004).

Target: rat MCH-1 (Rattus norvegicus, UniProt P97639)
Test: Radioligand binding assay at cloned rat MCH1 receptor ([3H] Compound A)
Design: host or cells: Peak rapid 293 (Peakr293) cells, transient calcium phosphate transfection, membranes
Conditions: cloned rat MCH1 receptor; 0.08 nM [3H] Compound A; Peakr293 cell membranes; read-out: Ki (nM) rMCH1

Sequence of rat MCH-1 (P97639 whole entry): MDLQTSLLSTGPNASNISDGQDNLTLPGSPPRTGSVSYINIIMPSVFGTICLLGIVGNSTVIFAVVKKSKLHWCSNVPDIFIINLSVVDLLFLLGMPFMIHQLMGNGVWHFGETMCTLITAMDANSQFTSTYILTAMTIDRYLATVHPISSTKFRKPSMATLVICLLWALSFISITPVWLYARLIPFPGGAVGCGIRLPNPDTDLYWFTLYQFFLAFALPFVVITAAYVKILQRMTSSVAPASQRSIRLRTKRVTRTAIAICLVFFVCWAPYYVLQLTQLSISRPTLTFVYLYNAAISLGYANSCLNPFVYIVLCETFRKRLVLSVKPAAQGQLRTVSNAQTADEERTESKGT

Row | SMILES | Ki [nM]
1 | CC(C)C(=O)Nc1cccc(C2CCN(CCCc3c(-c4cccc([N+](=O)[O-])c4)[nH]c4c3ccc3ccccc34)CC2)c1 [Example 767] | 34.8
2 | CC(C)C(=O)Nc1cccc(C2CCN(CCCc3c(-c4cccc([N+](=O)[O-])c4)[nH]c4ccc(OC(F)(F)F)cc34)CC2)c1 [Example 768] | 17.5
3 | CC(C)C(=O)Nc1cccc(C2CCN(CCCc3c(-c4cccc([N+](=O)[O-])c4)n(-c4ccccc4)c4ccccc34)CC2)c1 [Example 771] | 189
4 | Cc1cccc2c(CCCN3CCC(c4cccc(NC(=O)C(C)C)c4)CC3)c(-c3cccc([N+](=O)[O-])c3)[nH]c12 [Example 773] | 23.8
5 | Cc1ccc2[nH]c(-c3ccc([N+](=O)[O-])cc3)c(CCCN3CCC(c4cccc(NC(=O)C(C)C)c4)CC3)c2c1 [Example 776] | 18.2
6 | CC(C)C(=O)Nc1cccc(C2CCN(CCCC/C(=N\Nc3ccccc3)c3ccc([N+](=O)[O-])cc3)CC2)c1 [Example 778] | 26.5
7 | CC(C)C(=O)Nc1cccc(C2CCN(CCCC/C(=N\Nc3ccc(OC(F)(F)F)cc3)c3ccc([N+](=O)[O-])cc3)CC2)c1 [Example 780] | 64.3
8 | CC(C)C(=O)Nc1cccc(C2CCN(CCCc3c(-c4ccccc4Br)[nH]c4ccc(OC(F)(F)F)cc34)CC2)c1 [Example 782] | 18.1
9 | Cc1cccc2c(CCCN3CCC(c4cccc(NC(=O)C(C)C)c4)CC3)c(-c3ccccc3Br)[nH]c12 [Example 783] | 18
10 | CC(C)C(=O)Nc1cccc(C2CCN(CCCc3c(-c4ccccc4Br)n(-c4ccccc4)c4ccccc34)CC2)c1 [Example 784] | 121
11 | Cc1ccc2[nH]c(-c3ccccc3Br)c(CCCN3CCC(c4cccc(NC(=O)C(C)C)c4)CC3)c2c1 [Example 785] | 22.7
12 | CC(C)C(=O)Nc1cccc(C2CCN(CCCc3c(-c4ccccc4I)[nH]c4ccc(OC(F)(F)F)cc34)CC2)c1 [Example 786] | 19.7
13 | Cc1ccc2[nH]c(-c3ccccc3I)c(CCCN3CCC(c4cccc(NC(=O)C(C)C)c4)CC3)c2c1 [Example 787] | 21.6
14 | CC(C)C(=O)Nc1cccc(C2CCN(CCCc3c(-c4ccc([N+](=O)[O-])cc4)n(-c4ccccc4)c4ccccc34)CC2)c1 [Example 789] | 36.4
15 | CC(C)C(=O)Nc1cccc(C2CCN(CCCc3c(-c4ccccc4I)n(-c4ccccc4)c4ccccc34)CC2)c1 [Example 792] | 122
16 | Cc1cccc2c(CCCN3CCC(c4cccc(NC(=O)C(C)C)c4)CC3)c(-c3ccccc3I)[nH]c12 [Example 793] | 16.3
17 | CC1=C(C(=O)NCCCN2CCC(c3cccc(NC(=O)C(C)C)c3)CC2)C(c2ccc(F)c(F)c2)CC(=O)N1 (stereo not shown) [Example 795] | 51.1
18 | CC1=C(C(=O)NCCCN2CCC(c3cccc(NC(=O)C(C)C)c3)CC2)C(c2ccc(F)cc2F)CC(=O)N1 (stereo not shown) [Example 796] | 43

Row | SMILES | Ki [nM]
19 | COc1ccc(CCCCN2CCC(c3cccc(NC(=O)C(C)C)c3)CC2)cc1 [Example 797] | 42.4
20 | CCC(=O)Nc1ccc(C2CCN(CCCc3c(-c4ccccc4)n(-c4ccccc4)c4ccccc34)CC2)cc1 [Example 798] | 475
21 | CCC(=O)Nc1ccc(C2CCN(CCC(c3ccccc3)c3ccccc3)CC2)cc1 [Example 799] | 371
22 | CC(C)C(=O)Nc1cccc(C2CCN(CCc3cccc4ccccc34)CC2)c1 [Example 801] | 311
23 | CC(C)C(=O)Nc1cccc(C2CCN(CCC(c3ccccc3)c3ccccc3)CC2)c1 [Example 802] | 36.7
24 | COc1ccc(CCCN2CCC(c3cccc(NC(=O)C(C)C)c3)CC2)cc1OC [Example 803] | 299
25 | CC(C)C(=O)Nc1cccc(C2CCN(CCCc3ccccc3)CC2)c1 [Example 804] | 89.2
26 | CC(C)C(=O)Nc1cccc(C2CCN(CCCc3ccncc3)CC2)c1 [Example 805] | 904
27 | CC(C)C(=O)Nc1cccc(C2CCN(CCCCCC(O)c3ccccc3F)CC2)c1 (stereo not shown) [Example 809] | 56.8
28 | CC(C)C(=O)Nc1cccc(C2CCN(CCCCC(O)c3ccc(C(F)(F)F)cc3)CC2)c1 (stereo not shown) [Example 810] | 191
29 | CC(C)C(=O)Nc1cccc(C2CCN(CCCCC(O)c3ccc(F)cc3)CC2)c1 (stereo not shown) [Example 811] | 191
30 | CC(C)C(=O)Nc1cccc(C2CCN(CCCCCCC(O)c3ccccc3F)CC2)c1 (stereo not shown) [Example 812] | 245
31 | CC(C)C(=O)Nc1cccc(C2CCN(CCCCCC(O)c3cccc(F)c3)CC2)c1 (stereo not shown) [Example 813] | 57.3
32 | CC(C)C(=O)Nc1cccc(C2CCN(CCCCC(O)c3ccccc3F)CC2)c1 (stereo not shown) [Example 814] | 159
33 | CC(C)C(=O)Nc1cccc(C2CCN(CCCCC(O)c3cccc(F)c3)CC2)c1 (stereo not shown) [Example 815] | 127
34 | CC(C)C(=O)Nc1cccc(C2CCN(CCCCC(O)c3cccc(Cl)c3)CC2)c1 (stereo not shown) [Example 816] | 89.6
35 | CC(C)C(=O)Nc1cccc(C2CCN(CCCCCC(O)c3ccc(F)cc3)CC2)c1 (stereo not shown) [Example 817] | 34.9
36 | CC(C)C(=O)Nc1cccc(C2CCN(CCCCCC(O)c3ccc(Cl)cc3)CC2)c1 (stereo not shown) [Example 818] | 38.2

The next compounds have a lower Ki than those just listed; values first:

Row | Ki [nM] | SMILES
37 | 12.4 | Cc1ccc2[nH]c(-c3cccc([N+](=O)[O-])c3)c(CCCN3CCC(c4cccc(NC(=O)C(C)C)c4)CC3)c2c1 [Example 769]
38 | 12.7 | COc1ccc2[nH]c(-c3cccc([N+](=O)[O-])c3)c(CCCN3CCC(c4cccc(NC(=O)C(C)C)c4)CC3)c2c1 [Example 770]
39 | 14.9 | CC(C)C(=O)Nc1cccc(C2CCN(CCCc3c(-c4cccc([N+](=O)[O-])c4)n(C)c4ccccc34)CC2)c1 [Example 772]
40 | 7.9 | COc1ccc2[nH]c(-c3ccc([N+](=O)[O-])cc3)c(CCCN3CCC(c4cccc(NC(=O)C(C)C)c4)CC3)c2c1 [Example 774]
41 | 4.9 | CC(C)C(=O)Nc1cccc(C2CCN(CCCc3c(-c4ccccc4Br)[nH]c4ccccc34)CC2)c1 [Example 775]
42 | 8.5 | CC(C)C(=O)Nc1cccc(C2CCN(CCCc3c(-c4ccc([N+](=O)[O-])cc4)[nH]c4c3ccc3ccccc34)CC2)c1 [Example 777]
43 | 7.6 | Cc1cccc2c(CCCN3CCC(c4cccc(NC(=O)C(C)C)c4)CC3)c(-c3ccc([N+](=O)[O-])cc3)[nH]c12 [Example 779]
44 | 7.6 | CC(C)C(=O)Nc1cccc(C2CCN(CCCc3c(-c4ccccc4Br)[nH]c4c3ccc3ccccc34)CC2)c1 [Example 781]
45 | 11.1 | CC(C)C(=O)Nc1cccc(C2CCN(CCCc3c(-c4ccc([N+](=O)[O-])cc4)n(C)c4ccccc34)CC2)c1 [Example 788]
46 | 4.4 | CC(C)C(=O)Nc1cccc(C2CCN(CCCc3c(-c4ccccc4I)[nH]c4ccccc34)CC2)c1 [Example 790]
47 | 12.7 | CC(C)C(=O)Nc1cccc(C2CCN(CCCc3c(-c4ccccc4I)[nH]c4c3ccc3ccccc34)CC2)c1 [Example 791]
48 | 4.9 | CC(C)C(=O)Nc1cccc(C2CCN(CCCc3c(-c4ccccc4Br)n(C)c4ccccc34)CC2)c1 [Example 794]
49 | 9.9 | CC(C)C(=O)Nc1cccc(C2CCN(CCCCc3ccc([N+](=O)[O-])cc3)CC2)c1 [Example 800]
50 | 14.1 | CC(C)C(=O)Nc1cccc(C2CCN(Cc3ccc(C(C)(C)C)cc3)CC2)c1 [Example 806]
51 | 2.7 | CC(C)C(=O)Nc1cccc(C2CCN(Cc3ccc(C(=O)c4ccccc4)cc3)CC2)c1 [Example 807]
52 | 10.8 | CC(C)C(=O)Nc1cccc(C2CCN(CC[C@H](Oc3ccc(Cl)c(Cl)c3)c3ccccc3)CC2)c1 [Example 808]
